# Data published in article PMC4823954, “From fighting depression to conquering tumors: a novel tricyclic thiazepine compound as a tubulin polymerization inhibitor” (Cell Death & Disease, 2016).
# Legend:
# Assay in all cases: KINOMEscan
# Format in all cases: binding
# Details in all cases: read-out: % Ctrl
# [1] = target: T1, AKT2 (Homo sapiens, UniProt P31751)
# T1 construct: purchased DiscoveRx KINOMEscan
# How it was run: (§1)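 Competition binding panel of 442 non-mutant kinases: test compound at 5 and 10 μM competed with an active-site-directed ligand for 1 h with shaking. Bound kinase was eluted with 0.5 μM ligand and quantified by qPCR; %Ctrl = (compound − positive control)/(DMSO − positive control) × 100, lower meaning tighter binding.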
# [2] = target: T2, ASK1 (Homo sapiens, UniProt Q99683)
# T2 construct: purchased DiscoveRx KINOMEscan
# How it was run: as §1
# [3] = target: T3, BTK (Homo sapiens, UniProt Q06187)
# T3 construct: purchased DiscoveRx KINOMEscan
# How it was run: as §1
# [4] = target: T4, CIT (Homo sapiens, UniProt O14578)
# T4 construct: purchased DiscoveRx KINOMEscan
# How it was run: as §1
# [5] = target: T5, CSNK1E (Homo sapiens, UniProt P49674)
# T5 construct: purchased DiscoveRx KINOMEscan
# T5 sequence (P49674 whole entry): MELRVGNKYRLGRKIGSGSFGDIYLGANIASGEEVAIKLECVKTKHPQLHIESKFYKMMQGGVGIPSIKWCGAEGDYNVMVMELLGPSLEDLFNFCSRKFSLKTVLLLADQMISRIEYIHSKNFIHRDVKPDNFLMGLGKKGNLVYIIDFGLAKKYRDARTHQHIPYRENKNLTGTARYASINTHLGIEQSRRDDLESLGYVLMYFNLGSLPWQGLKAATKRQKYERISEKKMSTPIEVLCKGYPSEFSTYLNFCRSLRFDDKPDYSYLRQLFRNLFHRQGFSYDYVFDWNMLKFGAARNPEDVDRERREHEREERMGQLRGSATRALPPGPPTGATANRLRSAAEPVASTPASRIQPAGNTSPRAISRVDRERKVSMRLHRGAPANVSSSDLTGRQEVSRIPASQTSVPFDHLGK
# How it was run: as §1
# [6] = target: T6, DAPK3 (Homo sapiens, UniProt O43293)
# T6 construct: purchased DiscoveRx KINOMEscan
# How it was run: as §1
# [7] = target: T7, DCAMKL3 (Homo sapiens, UniProt Q9C098)
# T7 construct: purchased DiscoveRx KINOMEscan
# How it was run: as §1
# [8] = target: T8, DRAK2 (Homo sapiens, UniProt O94768)
# T8 construct: purchased DiscoveRx KINOMEscan
# How it was run: as §1
# [9] = target: T9, ICK (Homo sapiens, UniProt Q9UPZ9)
# T9 construct: purchased DiscoveRx KINOMEscan
# How it was run: as §1
# [10] = target: T10, JAK1(JH2domain-pseudokinase) (Homo sapiens, UniProt P23458)
# T10 construct: JAK1(JH2domain-pseudokinase); purchased DiscoveRx KINOMEscan
# How it was run: as §1
# [11] = target: T11, LRRK2 (Homo sapiens, UniProt Q5S007)
# T11 construct: purchased DiscoveRx KINOMEscan
# T11 sequence (Q5S007 whole entry): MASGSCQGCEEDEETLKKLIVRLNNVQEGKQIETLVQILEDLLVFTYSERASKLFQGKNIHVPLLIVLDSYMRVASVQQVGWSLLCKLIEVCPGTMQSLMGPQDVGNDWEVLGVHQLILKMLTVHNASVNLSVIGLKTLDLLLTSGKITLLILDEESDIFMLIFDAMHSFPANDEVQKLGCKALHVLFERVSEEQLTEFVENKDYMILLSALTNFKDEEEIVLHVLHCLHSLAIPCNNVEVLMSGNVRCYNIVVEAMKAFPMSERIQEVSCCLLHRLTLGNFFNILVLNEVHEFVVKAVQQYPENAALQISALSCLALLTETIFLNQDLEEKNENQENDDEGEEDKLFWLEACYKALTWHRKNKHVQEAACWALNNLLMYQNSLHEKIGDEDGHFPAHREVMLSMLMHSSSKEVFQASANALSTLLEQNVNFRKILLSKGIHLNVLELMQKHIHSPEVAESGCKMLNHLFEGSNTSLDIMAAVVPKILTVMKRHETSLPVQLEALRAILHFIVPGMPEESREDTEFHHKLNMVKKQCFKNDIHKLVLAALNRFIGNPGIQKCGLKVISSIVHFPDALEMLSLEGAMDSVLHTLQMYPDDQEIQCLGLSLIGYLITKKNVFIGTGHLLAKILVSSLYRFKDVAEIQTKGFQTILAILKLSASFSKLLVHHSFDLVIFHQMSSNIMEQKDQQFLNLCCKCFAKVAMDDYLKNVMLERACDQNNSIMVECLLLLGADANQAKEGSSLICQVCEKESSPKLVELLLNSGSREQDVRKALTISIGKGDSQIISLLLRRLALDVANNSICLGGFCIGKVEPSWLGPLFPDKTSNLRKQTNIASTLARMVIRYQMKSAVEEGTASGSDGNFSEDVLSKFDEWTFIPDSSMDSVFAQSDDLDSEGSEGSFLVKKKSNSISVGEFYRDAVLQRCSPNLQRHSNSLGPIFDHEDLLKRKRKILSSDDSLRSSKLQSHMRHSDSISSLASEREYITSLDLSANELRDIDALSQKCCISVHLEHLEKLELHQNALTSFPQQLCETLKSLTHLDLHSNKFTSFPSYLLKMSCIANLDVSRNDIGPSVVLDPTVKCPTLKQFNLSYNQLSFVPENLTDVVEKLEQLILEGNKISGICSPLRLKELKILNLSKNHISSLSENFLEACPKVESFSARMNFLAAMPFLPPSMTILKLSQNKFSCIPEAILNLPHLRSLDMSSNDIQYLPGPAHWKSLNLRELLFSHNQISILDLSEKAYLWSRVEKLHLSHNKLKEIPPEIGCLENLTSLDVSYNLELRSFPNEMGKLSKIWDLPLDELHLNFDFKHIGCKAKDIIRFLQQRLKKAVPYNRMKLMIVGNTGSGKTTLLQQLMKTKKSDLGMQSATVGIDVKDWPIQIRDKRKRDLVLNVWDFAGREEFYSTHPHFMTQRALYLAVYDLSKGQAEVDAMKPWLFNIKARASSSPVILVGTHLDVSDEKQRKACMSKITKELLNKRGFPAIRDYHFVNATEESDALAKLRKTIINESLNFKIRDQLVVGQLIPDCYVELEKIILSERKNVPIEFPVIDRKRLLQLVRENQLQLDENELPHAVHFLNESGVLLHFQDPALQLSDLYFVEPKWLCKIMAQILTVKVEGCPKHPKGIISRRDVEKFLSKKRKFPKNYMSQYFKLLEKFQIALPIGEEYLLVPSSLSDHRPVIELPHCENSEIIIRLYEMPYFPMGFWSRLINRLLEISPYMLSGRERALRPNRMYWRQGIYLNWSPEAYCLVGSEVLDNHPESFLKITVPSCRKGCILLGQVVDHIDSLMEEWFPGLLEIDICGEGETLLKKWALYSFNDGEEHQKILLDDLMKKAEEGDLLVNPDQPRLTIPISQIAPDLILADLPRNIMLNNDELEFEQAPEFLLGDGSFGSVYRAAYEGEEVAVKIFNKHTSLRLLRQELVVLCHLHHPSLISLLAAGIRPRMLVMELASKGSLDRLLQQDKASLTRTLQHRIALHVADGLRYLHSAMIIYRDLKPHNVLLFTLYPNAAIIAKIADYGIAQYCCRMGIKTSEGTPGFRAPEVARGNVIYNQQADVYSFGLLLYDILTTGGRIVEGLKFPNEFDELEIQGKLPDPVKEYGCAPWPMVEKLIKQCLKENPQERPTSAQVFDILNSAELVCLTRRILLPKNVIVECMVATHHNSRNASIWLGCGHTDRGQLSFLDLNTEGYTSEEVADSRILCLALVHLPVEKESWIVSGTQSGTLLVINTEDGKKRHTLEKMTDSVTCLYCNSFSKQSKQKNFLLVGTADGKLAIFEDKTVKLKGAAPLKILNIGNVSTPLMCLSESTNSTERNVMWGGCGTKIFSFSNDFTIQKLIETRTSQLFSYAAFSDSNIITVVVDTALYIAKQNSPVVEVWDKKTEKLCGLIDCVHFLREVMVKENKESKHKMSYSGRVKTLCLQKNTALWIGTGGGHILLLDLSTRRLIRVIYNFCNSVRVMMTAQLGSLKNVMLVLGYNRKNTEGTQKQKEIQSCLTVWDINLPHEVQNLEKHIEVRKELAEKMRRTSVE
# How it was run: as §1
# [12] = target: T12, MAP3K15 (Homo sapiens, UniProt Q6ZN16)
# T12 construct: purchased DiscoveRx KINOMEscan
# How it was run: as §1
# [13] = target: T13, MAP4K2 (Homo sapiens, UniProt Q12851)
# T13 construct: purchased DiscoveRx KINOMEscan
# How it was run: as §1
# [14] = target: T14, MYLK4 (Homo sapiens, UniProt Q86YV6)
# T14 construct: purchased DiscoveRx KINOMEscan
# How it was run: as §1
# [15] = target: T15, PAK3 (Homo sapiens, UniProt O75914)
# T15 construct: purchased DiscoveRx KINOMEscan
# How it was run: as §1
# [16] = target: T16, PDGFRB (Homo sapiens, UniProt P09619)
# T16 construct: purchased DiscoveRx KINOMEscan
# How it was run: as §1
# [17] = target: T17, PFCDPK1(P.falciparum) (Plasmodium falciparum, UniProt P62344)
# T17 construct: purchased DiscoveRx KINOMEscan
# How it was run: as §1
# [18] = target: T18, PFTK1 (Homo sapiens, UniProt O94921)
# T18 construct: purchased DiscoveRx KINOMEscan
# How it was run: as §1
# [19] = target: T19, PIK3CD (Homo sapiens, UniProt O00329)
# T19 construct: purchased DiscoveRx KINOMEscan
# How it was run: as §1
# [20] = target: T20, PIP5K2C (Homo sapiens, UniProt Q8TBX8)
# T20 construct: purchased DiscoveRx KINOMEscan
# How it was run: as §1
# [21] = target: T21, PRKCI (Homo sapiens, UniProt P41743)
# T21 construct: purchased DiscoveRx KINOMEscan
# T21 sequence (P41743 whole entry): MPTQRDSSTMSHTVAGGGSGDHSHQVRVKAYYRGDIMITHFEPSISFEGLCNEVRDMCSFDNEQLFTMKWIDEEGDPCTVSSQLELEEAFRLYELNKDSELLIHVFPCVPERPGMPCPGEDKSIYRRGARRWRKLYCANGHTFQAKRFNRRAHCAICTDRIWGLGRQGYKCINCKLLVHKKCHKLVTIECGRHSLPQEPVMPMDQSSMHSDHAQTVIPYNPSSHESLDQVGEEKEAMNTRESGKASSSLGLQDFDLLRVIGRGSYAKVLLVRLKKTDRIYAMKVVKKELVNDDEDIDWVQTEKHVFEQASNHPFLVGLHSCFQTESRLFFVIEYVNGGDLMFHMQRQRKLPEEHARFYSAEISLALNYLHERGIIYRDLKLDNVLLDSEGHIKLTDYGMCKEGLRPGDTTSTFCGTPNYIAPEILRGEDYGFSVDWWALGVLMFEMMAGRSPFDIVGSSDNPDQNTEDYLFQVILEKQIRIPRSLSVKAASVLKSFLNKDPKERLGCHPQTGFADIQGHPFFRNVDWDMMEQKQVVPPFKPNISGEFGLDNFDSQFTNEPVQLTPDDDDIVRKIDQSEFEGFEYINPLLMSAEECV
# How it was run: as §1
# [22] = target: T22, PRKD1 (Homo sapiens, UniProt Q15139)
# T22 construct: purchased DiscoveRx KINOMEscan
# T22 sequence (Q15139 whole entry): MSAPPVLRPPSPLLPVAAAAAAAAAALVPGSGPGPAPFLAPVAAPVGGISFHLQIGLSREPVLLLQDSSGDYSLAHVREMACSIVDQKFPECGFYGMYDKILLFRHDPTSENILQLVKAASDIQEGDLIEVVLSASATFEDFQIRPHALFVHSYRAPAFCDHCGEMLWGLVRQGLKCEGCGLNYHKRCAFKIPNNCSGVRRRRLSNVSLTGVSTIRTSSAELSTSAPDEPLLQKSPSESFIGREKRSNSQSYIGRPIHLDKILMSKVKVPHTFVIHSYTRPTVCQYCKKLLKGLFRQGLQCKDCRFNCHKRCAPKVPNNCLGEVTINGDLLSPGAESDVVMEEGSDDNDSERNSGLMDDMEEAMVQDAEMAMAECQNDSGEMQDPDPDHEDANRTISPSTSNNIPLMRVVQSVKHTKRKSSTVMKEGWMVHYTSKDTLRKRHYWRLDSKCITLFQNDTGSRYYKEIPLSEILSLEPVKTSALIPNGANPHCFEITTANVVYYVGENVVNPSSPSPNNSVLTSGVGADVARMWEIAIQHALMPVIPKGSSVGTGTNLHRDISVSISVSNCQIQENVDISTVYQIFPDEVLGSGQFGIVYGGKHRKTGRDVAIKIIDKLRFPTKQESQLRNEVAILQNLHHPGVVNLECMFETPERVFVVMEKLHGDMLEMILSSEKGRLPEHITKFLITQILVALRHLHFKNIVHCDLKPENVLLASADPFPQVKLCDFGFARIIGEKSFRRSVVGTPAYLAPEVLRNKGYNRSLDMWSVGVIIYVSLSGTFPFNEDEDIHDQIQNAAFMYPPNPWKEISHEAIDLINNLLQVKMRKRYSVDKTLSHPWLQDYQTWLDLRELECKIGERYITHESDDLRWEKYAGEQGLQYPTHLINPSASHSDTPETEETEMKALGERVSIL
# How it was run: as §1
# [23] = target: T23, PRKD2 (Homo sapiens, UniProt Q9BZL6)
# T23 construct: purchased DiscoveRx KINOMEscan
# How it was run: as §1
# [24] = target: T24, PRKR (Homo sapiens, UniProt P19525)
# T24 construct: purchased DiscoveRx KINOMEscan
# How it was run: as §1
# [25] = target: T25, RIOK1 (Homo sapiens, UniProt Q9BRS2)
# T25 construct: purchased DiscoveRx KINOMEscan
# How it was run: as §1
# [26] = target: RPS6KA4(Kin.Dom.2-C-terminal) (Homo sapiens, UniProt O75676)
# Chain of RPS6KA4(Kin.Dom.2-C-terminal) (O75676 372-772 limits assumed): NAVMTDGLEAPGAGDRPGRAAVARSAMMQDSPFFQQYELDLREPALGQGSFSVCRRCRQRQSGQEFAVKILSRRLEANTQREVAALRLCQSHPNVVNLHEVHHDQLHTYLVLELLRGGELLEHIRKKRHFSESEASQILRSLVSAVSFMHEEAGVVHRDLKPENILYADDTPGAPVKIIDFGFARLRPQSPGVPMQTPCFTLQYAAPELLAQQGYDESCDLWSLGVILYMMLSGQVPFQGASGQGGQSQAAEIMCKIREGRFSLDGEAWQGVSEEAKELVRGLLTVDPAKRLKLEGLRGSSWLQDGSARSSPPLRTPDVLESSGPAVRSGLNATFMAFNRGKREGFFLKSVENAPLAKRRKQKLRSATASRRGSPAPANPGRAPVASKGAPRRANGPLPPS
# How it was run: as §1
# [27] = target: T26, RSK1(Kin.Dom.2-C-terminal) (Homo sapiens, UniProt Q15418)
# T26 construct: RSK1(Kin.Dom.2-C-terminal); purchased DiscoveRx KINOMEscan
# How it was run: as §1
# [28] = target: T27, RSK2(Kin.Dom.1-N-terminal) (Homo sapiens, UniProt P51812)
# T27 construct: RSK2(Kin.Dom.1-N-terminal); purchased DiscoveRx KINOMEscan
# How it was run: as §1
# [29] = target: T28, SRPK1 (Homo sapiens, UniProt Q96SB4)
# T28 construct: purchased DiscoveRx KINOMEscan
# How it was run: as §1
structure (smiles),measurement,setting,value
"Cc1ccc(C2=Nc3cccnc3S(=O)(=O)c3ccccc32)cc1 [TBPT, 6-(p-tolyl)benzo[f] pyrido[2,3-b][1,4] thiazepine 11,11-dioxide]",remaining binding at 5 µM,[1]; 5 μM,76%
same,remaining binding at 10 µM,[1]; 10 μM,100%
same,remaining binding at 5 µM,[2]; 5 μM,100%
same,remaining binding at 10 µM,[2]; 10 μM,100%
same,remaining binding at 5 µM,[3]; 5 μM,91%
same,remaining binding at 10 µM,[3]; 10 μM,83%
same,remaining binding at 5 µM,[4]; 5 μM,98%
same,remaining binding at 10 µM,[4]; 10 μM,97%
same,remaining binding at 5 µM,[5]; 5 μM,100%
same,remaining binding at 10 µM,[5]; 10 μM,96%
same,remaining binding at 5 µM,[6]; 5 μM,100%
same,remaining binding at 10 µM,[6]; 10 μM,100%
same,remaining binding at 5 µM,[7]; 5 μM,100%
same,remaining binding at 10 µM,[7]; 10 μM,79%
same,remaining binding at 5 µM,[8]; 5 μM,100%
same,remaining binding at 10 µM,[8]; 10 μM,91%
same,remaining binding at 5 µM,[9]; 5 μM,100%
same,remaining binding at 10 µM,[9]; 10 μM,100%
same,remaining binding at 5 µM,[10]; 5 μM,100%
same,remaining binding at 10 µM,[10]; 10 μM,100%
same,remaining binding at 5 µM,[11]; 5 μM,94%
same,remaining binding at 10 µM,[11]; 10 μM,100%
same,remaining binding at 5 µM,[12]; 5 μM,100%
same,remaining binding at 10 µM,[12]; 10 μM,100%
same,remaining binding at 5 µM,[13]; 5 μM,92%
same,remaining binding at 10 µM,[13]; 10 μM,100%
same,remaining binding at 5 µM,[14]; 5 μM,94%
same,remaining binding at 10 µM,[14]; 10 μM,99%
same,remaining binding at 5 µM,[15]; 5 μM,100%
same,remaining binding at 10 µM,[15]; 10 μM,100%
same,remaining binding at 5 µM,[16]; 5 μM,68%
same,remaining binding at 10 µM,[16]; 10 μM,100%
same,remaining binding at 5 µM,[17]; 5 μM,100%
same,remaining binding at 10 µM,[17]; 10 μM,100%
same,remaining binding at 5 µM,[18]; 5 μM,100%
same,remaining binding at 10 µM,[18]; 10 μM,100%
same,remaining binding at 5 µM,[19]; 5 μM,94%
same,remaining binding at 10 µM,[19]; 10 μM,100%
same,remaining binding at 5 µM,[20]; 5 μM,100%
same,remaining binding at 10 µM,[20]; 10 μM,100%
same,remaining binding at 5 µM,[21]; 5 μM,95%
same,remaining binding at 10 µM,[21]; 10 μM,91%
same,remaining binding at 5 µM,[22]; 5 μM,100%
same,remaining binding at 10 µM,[22]; 10 μM,78%
same,remaining binding at 5 µM,[23]; 5 μM,100%
same,remaining binding at 10 µM,[23]; 10 μM,100%
same,remaining binding at 5 µM,[24]; 5 μM,97%
same,remaining binding at 10 µM,[24]; 10 μM,90%
same,remaining binding at 5 µM,[25]; 5 μM,83%
same,remaining binding at 10 µM,[25]; 10 μM,76%
same,remaining binding at 5 µM,[26]; 5 μM,100%
same,remaining binding at 10 µM,[26]; 10 μM,90%
same,remaining binding at 5 µM,[27]; 5 μM,100%
same,remaining binding at 10 µM,[27]; 10 μM,98%
same,remaining binding at 5 µM,[28]; 5 μM,98%
same,remaining binding at 10 µM,[28]; 10 μM,100%
same,remaining binding at 5 µM,[29]; 5 μM,88%
same,remaining binding at 10 µM,[29]; 10 μM,67%
